“Also recorded” adds a separate entry of the source. Like-named read-outs stand apart in the source and are kept apart here.
Tests used:
histamine H1 receptor = histamine H1 receptor (Homo sapiens, UniProt P35367); assay: PDSP radioligand displacement receptor assay, H1; format: binding; details: for inhibition at 10 µM: radioligand displacement, primary assay, 10 μM compound; for Ki: secondary binding assay, test compound 1 to 10,000 nM
Experimental: (§1) Receptor affinity assays were carried out according to methods as described at http://pdsp.med.unc.edu/ (accessed on Oct. 13, 2010).
(§2) Initial hits were obtained in radioligand displacement assays. […] Representative activity is highlighted in the table below showing in radioligand displacement activity at 10 μM of the in dicated compound. Ki was determined as indicated.

DAT = DAT (Homo sapiens, UniProt Q01959); assay: PDSP radioligand displacement receptor assay, DAT; format: binding; details: for inhibition at 10 µM: radioligand displacement, primary assay, 10 μM compound; for Ki: secondary binding assay, test compound 1 to 10,000 nM
Experimental: as §1, §2

kappa opioid receptor = kappa opioid receptor (Homo sapiens, UniProt P41145); assay: PDSP radioligand displacement receptor assay, KOR; format: binding; details: for inhibition at 10 µM: radioligand displacement, primary assay, 10 μM compound; for Ki: secondary binding assay, test compound 1 to 10,000 nM
Experimental: as §1, §2

Ca2+ Channel = assay: PDSP radioligand displacement receptor assay, Ca2+ channel; format: binding; details: for inhibition (10 μM) Ca2+ Channel: radioligand displacement, primary assay, 10 μM compound; for Ki: secondary binding assay, test compound 1 to 10,000 nM
Experimental: as §1, §2

5HT-2B receptor = 5HT-2B receptor (Homo sapiens, UniProt P41595); assay: PDSP radioligand displacement receptor assay, 5HT2B; format: binding; details: for inhibition at 10 µM: primary assay, 10 μM compound; for Ki: secondary binding assay
Experimental: as §1, §2

[1] = tested on: other serotonin receptors; assay: PDSP primary assay, other serotonin receptors; format: binding; details: 5HT-2B versus other serotonin receptors
Experimental: as §1, §2

[2] = tested on: dorsal root ganglia (DRG) cells; assay: Dorsal root ganglion (DRG) assay, Fura-2 intracellular calcium with 25 mM KCl; format: cell-based, mice; details: pure compound 20 μg/mL, co-applied with 25 mM KCl, mouse DRG cells
Experimental: For details of the isolation and culture of dorsal root ganglion neurons see Light et al. Briefly, dorsal root ganglia (DRG) cells from cervical and lumbar regions were obtained from mice and used in an assay with bacterial culture extracts and pure compounds. DRG cells were suspended in medium with additives and loaded with Fura-2 AM (Molecular Probes), a fluorescent dye used to measure intracellular calcium levels. Experiments were performed at room temperature (20 to 25° C.) in a 24-well plate format using fluorescence microscopy. Individual cells were treated as single samples, so that the individual responses of diverse neuron subtypes from the DRG could be examined. After baseline measurements, the cells were treated with 25 mM KCl solution and then washed. After return to baseline, bacterial extracts, fractions, or pure compounds were applied. This solution was then later replaced with 25 mM KCl solution. The use of KCl permitted observation of direct, modulatory, as well as inhibitory and excitatory effects of the samples assayed.
Representative data for assay results obtained with a sample of crude extract (100 μg/mL; FIG. 33), as well as compounds 1, 2, and 8 (20 μg/mL; respectively, […]). The y-axis indicates the ratio between 340 nm and 380 nm fluorescence. A higher value indicates more Ca^2+ in the cell. The x-axis indicates time. Each line indicates an individual DRG cell followed over the experimental time course. In each experiment, KCl is applied either once or twice, the compounds or extracts are incubated with cells, then the compound is co-applied with KCl.

[3] = test compound 1 to 10,000 nM, read-out: Ki (nM) 5HT2B

Sequence of kappa opioid receptor (P41145 whole entry): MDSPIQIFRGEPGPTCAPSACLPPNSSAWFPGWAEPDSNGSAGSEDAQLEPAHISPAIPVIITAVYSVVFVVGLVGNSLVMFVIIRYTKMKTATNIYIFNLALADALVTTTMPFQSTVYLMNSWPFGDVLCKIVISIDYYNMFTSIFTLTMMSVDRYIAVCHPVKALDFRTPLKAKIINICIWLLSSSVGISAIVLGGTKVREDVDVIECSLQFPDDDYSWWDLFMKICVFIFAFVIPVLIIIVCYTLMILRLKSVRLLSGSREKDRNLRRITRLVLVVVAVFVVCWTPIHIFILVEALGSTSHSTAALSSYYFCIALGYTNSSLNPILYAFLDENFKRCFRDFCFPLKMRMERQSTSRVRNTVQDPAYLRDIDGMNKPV
Sequence of 5HT-2B receptor (P41595 whole entry): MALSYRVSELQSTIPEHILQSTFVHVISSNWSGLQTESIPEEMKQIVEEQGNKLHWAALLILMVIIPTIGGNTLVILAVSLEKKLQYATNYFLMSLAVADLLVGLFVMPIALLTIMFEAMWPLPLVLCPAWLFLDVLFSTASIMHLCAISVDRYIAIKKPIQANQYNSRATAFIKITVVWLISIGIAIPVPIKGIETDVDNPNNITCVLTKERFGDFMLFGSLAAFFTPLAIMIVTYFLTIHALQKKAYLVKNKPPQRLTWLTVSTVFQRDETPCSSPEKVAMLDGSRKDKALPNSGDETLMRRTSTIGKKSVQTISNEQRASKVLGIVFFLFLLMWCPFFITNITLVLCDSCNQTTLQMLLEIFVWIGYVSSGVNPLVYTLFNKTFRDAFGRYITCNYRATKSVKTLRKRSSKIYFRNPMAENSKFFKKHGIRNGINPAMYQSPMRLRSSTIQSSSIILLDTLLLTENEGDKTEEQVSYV
Sequence of histamine H1 receptor (P35367 whole entry, species assumed): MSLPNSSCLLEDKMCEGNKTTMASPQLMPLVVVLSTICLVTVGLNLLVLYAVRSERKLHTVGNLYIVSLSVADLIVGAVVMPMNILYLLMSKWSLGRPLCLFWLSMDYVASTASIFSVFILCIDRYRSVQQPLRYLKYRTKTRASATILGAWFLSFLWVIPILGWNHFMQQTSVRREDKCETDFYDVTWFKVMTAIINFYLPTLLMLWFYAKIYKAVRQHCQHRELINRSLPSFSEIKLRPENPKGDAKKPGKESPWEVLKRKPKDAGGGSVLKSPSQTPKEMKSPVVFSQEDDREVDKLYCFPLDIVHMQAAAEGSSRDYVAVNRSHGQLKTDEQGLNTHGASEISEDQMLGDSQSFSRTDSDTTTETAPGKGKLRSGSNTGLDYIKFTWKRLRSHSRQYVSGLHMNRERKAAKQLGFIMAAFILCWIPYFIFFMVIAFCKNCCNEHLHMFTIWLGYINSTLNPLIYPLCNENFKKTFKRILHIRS
Sequence of DAT (Q01959 whole entry, species assumed): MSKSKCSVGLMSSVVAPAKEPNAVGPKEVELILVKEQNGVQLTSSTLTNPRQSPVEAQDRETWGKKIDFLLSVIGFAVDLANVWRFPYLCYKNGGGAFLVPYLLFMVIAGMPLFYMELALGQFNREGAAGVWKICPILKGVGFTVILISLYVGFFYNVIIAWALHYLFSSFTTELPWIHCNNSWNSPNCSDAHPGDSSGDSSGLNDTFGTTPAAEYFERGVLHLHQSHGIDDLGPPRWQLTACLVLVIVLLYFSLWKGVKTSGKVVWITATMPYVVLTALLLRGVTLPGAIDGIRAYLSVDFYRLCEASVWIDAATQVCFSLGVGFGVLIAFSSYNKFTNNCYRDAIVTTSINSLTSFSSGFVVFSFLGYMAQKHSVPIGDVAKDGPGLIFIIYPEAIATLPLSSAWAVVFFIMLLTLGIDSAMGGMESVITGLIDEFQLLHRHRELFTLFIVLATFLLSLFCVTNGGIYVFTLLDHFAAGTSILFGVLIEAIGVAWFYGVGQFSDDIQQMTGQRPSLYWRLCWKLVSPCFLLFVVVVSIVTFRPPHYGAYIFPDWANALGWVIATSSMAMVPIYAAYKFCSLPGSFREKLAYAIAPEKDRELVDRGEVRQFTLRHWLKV

| Compound | inhibition at 10 µM (histamine H1 receptor) [%] | inhibition at 10 µM (DAT) [%] | Ki (DAT) [nM] | inhibition at 10 µM (kappa opioid receptor) [%] | inhibition (10 μM) Ca2+ Channel (Ca2+ Channel) [%] | inhibition at 10 µM (5HT-2B receptor; radioligand displacement) [%] | Ki (5HT-2B receptor; [3]) [nM] | Ki (Ca2+ Channel) [nM] | Ki (histamine H1 receptor) [nM] | Ki (5HT-2B receptor; radioligand displacement, read-out: Ki (nM) vs 5-HT2B) [nM] | selectivity for the 5HT-2B receptor versus the other serotonin receptors [1] [fold] | response in DRG assay (Ca2+ influx) [2] | Ki (kappa opioid receptor) [nM] |
| --- | --- | --- | --- | --- | --- | --- | --- | --- | --- | --- | --- | --- | --- |
| C[C@@H]1SC(c2ccccc2O)=N[C@H]1[C@@H]1SC[C@](C)(C(=O)O)N1C [Compound 9, (2S,4S)-2-((4R,5S)-2-(2-hydroxyphenyl)-5-methyl-4,5-dihydrothiazol-4-yl)-3,4-dimethylthiazolidine-4-carboxylic acid] | 16.3 | 83.8 | > 10000 | 41.4 | 0.1 | 68 | 3920 |  |  |  |  |  |  |
| Cc1sc(-c2ccccc2O)nc1C=O [Compound 5, 2-(2-hydroxyphenyl)-5-methylthiazole-4-carbaldehyde] | 42.5 | 88.3 | 5180 | 37.1 | −18.9 | 77 | 1540 |  |  |  |  |  |  |
| C[C@@H]1SC(c2ccccc2O)=N[C@H]1[C@H]1SC[C@](C)(C(=O)O)N1C [Compound 10, (2R,4S)-2-((4R,5S)-2-(2-hydroxyphenyl)-5-methyl-4,5-dihydrothiazol-4-yl)-3,4-dimethylthiazolidine-4-carboxylic acid] | -3 | -0.3 |  | 31.9 | 110.4 | 40.3 | 4700 | 9750 |  |  |  |  |  |
| NC(=O)c1csc(-c2ccccc2O)n1 [Compound 7, 2-(2-hydroxyphenyl)thiazole-4-carboxamide] | 88 | 2.4 |  | 31.8 | 29.6 | 84.9 |  |  | 517 ± 28 | 1030 ± 76 |  |  |  |
| C[C@@H]1SC(c2ccccc2O)=N[C@@H]1CO [Compound 2, 2-((4R,5S)-4-(hydroxymethyl)-5-methyl-4,5-dihydrothiazol-2-yl)phenol] | 45.8 | 6 |  | 60.8 |  | 89.7 | 505 | 6600 |  |  | ≥ 20 | inhibitory response; also recorded: decreased Ca^2+ influx | > 10000 |
| NC(=O)C1CSC(c2ccccc2O)=N1 (stereo not drawn) [Compound 8, 2-(2-hydroxyphenyl)-4,5-dihydrothiazole-4-carboxamide] | 71.6 | 13.8 |  | 50.4 | −3.4 | 65.8 | 1260 |  | 678 ± 46 |  |  | excitatory response; also recorded: increased Ca^2+ influx | 3710 |
| OC[C@@H]1CSC(c2ccccc2O)=N1 [Compound 1, (R)-2-(4-(hydroxymethyl)-4,5-dihydrothiazol-2-yl)phenol] | 39 | -1.5 |  | 57.2 | −0.7 | 79.2 | 1360 |  |  |  |  | excitatory response; also recorded: increased Ca^2+ influx | > 10000 |

Reference: patent US9751847B2, “Methods and compositions related to neuroactive thiazoline compounds” (University of Utah Research Foundation, priority 2010, dated 2017)
